According to patent US20250312469A1 (CANGET BIOTEKPHARMA, priority 2024, published 2025):

Key:
[1] = system: SK-ES-1 OS tumors; assay: SK-ES-1 osteosarcoma xenograft; format: in vivo, SCID mice; settings: weekly×4
[2] = in vitro; settings: both, human, whole blood (sodium heparin), pH 7.4

SMILES | antitumor efficacy [1] | blood plasma ratio at 60 min, 1 μM [2]
COc1cccc2c1C(=O)c1c(O)c3c(c(O)c1C2=O)C[C@@](O)(C(=O)CO)C[C@@H]3O[C@H]1C[C@H](N)[C@H](O)[C@H](C)O1 [DOX, doxorubicin, reference compound] | not seen | –
NS(=O)(=O)c1cc(C2(O)NC(=O)c3ccccc32)ccc1Cl (centres unmarked) [chlorthalidone] | – | 8.73
